Experimental findings from ChEMBL document CHEMBL1201862, “PubChem BioAssay data set” (2004) are described below.

Holding throughout (test): growth of human tumour cells (NCI), 48 h
Experiment [1] has as its system SF-539.
Experiment [2] relates to M14.
The test system of experiment [3] is HOP-62.
For experiment [4], the system named is A549.
In experiment [5] the test system is SR.
Experiment [6] deals with UACC-257.
Experiment [7] has as its system HCT-15.
Experiment [8] relates to OVCAR-8.
The test system of experiment [9] is NCI-H226.
Experiment [10] has as its system NCI/ADR-RES.
For experiment [11], the system named is OVCAR-4.
For experiment [12], the system named is KM12.
The test system of experiment [13] is UACC-62.
Experiment [14] has as its system U-251.
In experiment [15] the test system is SN12C.
In experiment [16] the test system is RPMI-8226.
In experiment [17] the test system is UO-31.
In experiment [18] the test system is OVCAR-3.
The test system of experiment [19] is SK-MEL-2.

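The compound was tested at five concentrations on cells cultured in 96-well plates, with a 48-hour exposure period. The concentration for 50% growth inhibition is given as GI50.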 Active and inactive are the calls of the source. Cut-off read from the data, not from the text of the source: active = GI50 up to about 1.1 µM and inactive = higher. Bounds are passed on as bounds.

For the compound `Fc1ccc(C2(CCCN3CCc4[nH]c5cc(F)ccc5c4C3)OCCO2)cc1`, the GI50 in experiment [1] is 12 µM (inactive); in experiment [2] it was 2.53 µM (inactive); in experiment [3] it was 13 µM (inactive); in experiment [4], 14.7 µM (inactive); in experiment [5], 7.52 µM (inactive); in experiment [6], 4.71 µM (inactive). Moreover, the GI50 in [7] is 16.4 µM; in experiment [8], 17.7 µM (inactive); in [9] it was 19 µM (inactive); in experiment [10], 20.7 µM (inactive); in experiment [11], 13.3 µM (inactive); in experiment [12], 13.3 µM (inactive). In addition, the GI50 in [13] was 13.7 µM (inactive); in experiment [14], 11.9 µM (inactive); in experiment [15], 16.7 µM (inactive); in [16] it was 10.7 µM (inactive); in experiment [17] it was 3.33 µM (inactive).
On to `CCOC(=O)O/N=C1/C(=C2/C(=O)Nc3ccccc32)Nc2ccccc21`, for which the GI50 in experiment [2] is 10.3 µM (inactive); in experiment [3], 6.81 µM (inactive); in [4] it was 4.56 µM (inactive); in experiment [5], 3.61 µM (inactive); in experiment [6], 10.2 µM (inactive); in experiment [7], 2.7 µM. Besides, the GI50 in experiment [8] is 5.83 µM (inactive); in [18], 2.15 µM (inactive); in experiment [19], 2.29 µM (inactive); in [10], 4.83 µM (inactive); in experiment [11] it was 6.4 µM (inactive); in experiment [12], 0.192 µM (active). For the same compound, the GI50 in experiment [13] was 8.32 µM (inactive); in experiment [14], 9.14 µM (inactive); in experiment [15], 4.41 µM (inactive); in experiment [16], 10.8 µM (inactive); in experiment [17], 3.65 µM (inactive).
Regarding `O=C1C=C(Nc2ccc(Cl)cc2Cl)c2ccccc2C1=O`, the GI50 is > 100 µM (inactive) in experiment [1]; 21.3 µM (inactive) in [2]; 30.5 µM (inactive) in experiment [3]; 28.5 µM (inactive) in experiment [4]; 29.4 µM (inactive) in [5]; 35 µM (inactive) in experiment [6]. For the same compound, the GI50 in [7] was 29.5 µM; in experiment [8] it was 80 µM (inactive); in experiment [9], 28.5 µM (inactive); in experiment [18], 28.4 µM (inactive); in experiment [19] it was 23.6 µM (inactive); in experiment [11], 87.9 µM (inactive). Moreover, the GI50 is 66.5 µM (inactive) in experiment [12]; 16.5 µM (inactive) in [13]; 29.4 µM (inactive) in [14]; 57.1 µM (inactive) in experiment [15]; 46.5 µM (inactive) in experiment [16]; 43.1 µM (inactive) in experiment [17].
`Cc1ccc(NC(=O)C(=O)Cc2cccc[n+]2[O-])cc1C`: the GI50 in [1], in [2], in [3], in experiment [4], in experiment [5] and in experiment [6] was > 100 µM (inactive) throughout. For the same compound, the GI50 was over 100 µM in [7]; > 100 µM (inactive) in experiment [8]; > 100 µM (inactive) in experiment [9]; > 100 µM (inactive) in experiment [18]; > 100 µM (inactive) in experiment [19]; > 100 µM (inactive) in experiment [11]. Also, the GI50 in experiment [12], in experiment [13], in [14], in [15], in [16] and in experiment [17] was > 100 µM (inactive) each time.
For the compound `COC(=O)C1CCc2nnc(-c3cccnc3)n21` (stereo unspecified), the GI50 in experiment [1], in [2], in [3], in experiment [4], in [5] and in experiment [6] was > 100 µM (inactive) throughout. Also, the GI50 was over 100 µM in [7]; > 100 µM (inactive) in [8]; > 100 µM (inactive) in experiment [9]; > 100 µM (inactive) in experiment [18]; > 100 µM (inactive) in [19]; > 100 µM (inactive) in [11]. Moreover, the GI50 in [12], in experiment [13], in experiment [14], in [15], in experiment [16] and in experiment [17] was > 100 µM (inactive) each time.
In the case of `CC(C)C(=O)NC(=S)Nc1ccc([N+](=O)[O-])cc1C#N`, the GI50 in [1], in experiment [2], in experiment [3], in experiment [4], in [5] and in [6] was > 100 µM (inactive) in each case. Further, the GI50 in experiment [7] was over 100 µM; in [8], > 100 µM (inactive); in experiment [9], 25.1 µM (inactive); in experiment [18], > 100 µM (inactive); in experiment [19], > 100 µM (inactive); in [11], > 100 µM (inactive). In addition, the GI50 was > 100 µM (inactive) in experiment [12]; > 100 µM (inactive) in experiment [13]; > 100 µM (inactive) in experiment [14]; 22 µM (inactive) in experiment [15]; > 100 µM (inactive) in [16]; > 100 µM (inactive) in experiment [17].
`CC(=O)Nc1ccc(S(=O)(=O)N/N=C(\C)CN2C(=O)c3ccccc3C2=O)cc1`: the GI50 in experiment [1], in [2], in [3], in experiment [4], in experiment [5] and in experiment [6] was > 100 µM (inactive) in each case. In addition, the GI50 in experiment [7] was over 100 µM; in [8], > 100 µM (inactive); in [9] it was > 100 µM (inactive); in experiment [18] it was > 100 µM (inactive); in experiment [19], > 100 µM (inactive); in experiment [11], > 100 µM (inactive). For the same compound, the GI50 is > 100 µM (inactive) in experiment [12]; > 100 µM (inactive) in experiment [13]; > 100 µM (inactive) in [14]; 55.2 µM (inactive) in experiment [15]; > 100 µM (inactive) in experiment [16]; > 100 µM (inactive) in experiment [17].
As for `C=CCc1ccc(Oc2cc(CC=C)c3c(c2O)O[C@@H](CO)[C@H]3c2ccc(O)c(-c3cc(CC=C)ccc3O)c2)cc1`, the GI50 in experiment [1] was 40.9 µM (inactive); in experiment [2], 47.6 µM (inactive); in experiment [3], 55.7 µM (inactive); in experiment [4], > 100 µM (inactive); in experiment [5], 12.4 µM (inactive); in experiment [6] it was > 100 µM (inactive). Further, the GI50 in experiment [7] is 30.2 µM; in experiment [8] it was 41.7 µM (inactive); in experiment [9] it was 67.1 µM (inactive); in experiment [18], 33 µM (inactive); in experiment [19], 24.3 µM (inactive); in experiment [11], 54.7 µM (inactive). Also, the GI50 in experiment [12] is 35.3 µM (inactive); in experiment [13], 30.1 µM (inactive); in experiment [14] it was 23.1 µM (inactive); in experiment [15], 41.9 µM (inactive); in [16] it was 32.5 µM (inactive); in experiment [17], 77.1 µM (inactive).
`Cc1c(Cl)ccc2c1NC(=O)C2(O)C(C(=O)c1ccccc1)c1ccccc1` (stereo unspecified): the GI50 is 74.6 µM (inactive) in [1]; > 100 µM (inactive) in experiment [2]; > 100 µM (inactive) in experiment [3]; 98.2 µM (inactive) in experiment [4]; 27.3 µM (inactive) in experiment [5]; 28.7 µM (inactive) in experiment [6]. Also, the GI50 in [7] is 45.7 µM; in [8], 69.7 µM (inactive); in experiment [9], 88.5 µM (inactive); in experiment [18], > 10 µM (inactive); in experiment [19] it was > 100 µM (inactive); in [11] it was 10.7 µM (inactive). The GI50 is 55.3 µM (inactive) in [12]; 19.5 µM (inactive) in experiment [13]; 34.8 µM (inactive) in experiment [14]; 76.6 µM (inactive) in experiment [15]; 25.9 µM (inactive) in [16]; 76.6 µM (inactive) in [17].
Turning to `CCCCCCCCCCCCCC(=O)OCC(C[As](=O)(O)O)OC(=O)CCCCCCCCCCCCC` (stereo unspecified), the GI50 in [1], in experiment [2], in experiment [3], in experiment [4], in [5] and in [6] was > 100 µM (inactive) throughout. The GI50 is 69.3 µM in experiment [7]; > 100 µM (inactive) in [8]; > 100 µM (inactive) in [9]; > 100 µM (inactive) in experiment [18]; > 100 µM (inactive) in [19]; > 100 µM (inactive) in experiment [11]. The GI50 in experiment [12] was > 100 µM (inactive); in experiment [13] it was > 100 µM (inactive); in experiment [14], 43.9 µM (inactive); in experiment [15], 92 µM (inactive); in [16], > 100 µM (inactive); in experiment [17], > 100 µM (inactive).
On to `CC(=O)c1ccccc1NC(=O)C(=O)C(C(=O)c1ccccc1-c1ccccc1)C1OC(=O)c2ccccc21` (stereo unspecified), for which the GI50 was 17.8 µM (inactive) in experiment [1]; 18.2 µM (inactive) in [2]; 20.1 µM (inactive) in experiment [3]; 25.5 µM (inactive) in experiment [4]; 21.6 µM (inactive) in experiment [5]; 15.7 µM (inactive) in experiment [6]. For the same compound, the GI50 in experiment [7] is 19.7 µM; in [8] it was 19.1 µM (inactive); in [9], 14.9 µM (inactive); in experiment [18] it was 20.7 µM (inactive); in experiment [19] it was 17.2 µM (inactive); in experiment [11] it was 33.7 µM (inactive). The GI50 in [12] was 18 µM (inactive); in experiment [13] it was 20.7 µM (inactive); in [14], 16 µM (inactive); in experiment [15] it was 17.1 µM (inactive); in experiment [16] it was 27.3 µM (inactive); in experiment [17], 18.2 µM (inactive).
